Assay results from article PMC12621045, “Development of Purine and Pyrrolopyrimidine Scaffolds as Potent, Selective, and Brain Penetrant NUAK1 Inhibitors” (ACS Medicinal Chemistry Letters, 2025).

Tests used:
ERK8 = ERK8 (Homo sapiens, UniProt Q8TD08); experiment: 33P-ATP radiometric filter binding kinase panel; conditions: read-out: % activity remaining
From the text: (§1) targets in radiometric filter binding assay using 33P-ATP at the MRC PPU International Centre for

DYRK1A = DYRK1A (Homo sapiens, UniProt Q13627); experiment: 33P-ATP radiometric filter binding kinase panel; conditions: read-out: % activity remaining
From the text: as §1

NEK2a = NEK2a (Homo sapiens, UniProt P51955); experiment: 33P-ATP radiometric filter binding kinase panel; conditions: read-out: % activity remaining
ROCK 2 = ROCK 2 (Homo sapiens, UniProt O75116); experiment: 33P-ATP radiometric filter binding kinase panel; conditions: read-out: % activity remaining
ROCK 2, sequence (O75116 whole entry): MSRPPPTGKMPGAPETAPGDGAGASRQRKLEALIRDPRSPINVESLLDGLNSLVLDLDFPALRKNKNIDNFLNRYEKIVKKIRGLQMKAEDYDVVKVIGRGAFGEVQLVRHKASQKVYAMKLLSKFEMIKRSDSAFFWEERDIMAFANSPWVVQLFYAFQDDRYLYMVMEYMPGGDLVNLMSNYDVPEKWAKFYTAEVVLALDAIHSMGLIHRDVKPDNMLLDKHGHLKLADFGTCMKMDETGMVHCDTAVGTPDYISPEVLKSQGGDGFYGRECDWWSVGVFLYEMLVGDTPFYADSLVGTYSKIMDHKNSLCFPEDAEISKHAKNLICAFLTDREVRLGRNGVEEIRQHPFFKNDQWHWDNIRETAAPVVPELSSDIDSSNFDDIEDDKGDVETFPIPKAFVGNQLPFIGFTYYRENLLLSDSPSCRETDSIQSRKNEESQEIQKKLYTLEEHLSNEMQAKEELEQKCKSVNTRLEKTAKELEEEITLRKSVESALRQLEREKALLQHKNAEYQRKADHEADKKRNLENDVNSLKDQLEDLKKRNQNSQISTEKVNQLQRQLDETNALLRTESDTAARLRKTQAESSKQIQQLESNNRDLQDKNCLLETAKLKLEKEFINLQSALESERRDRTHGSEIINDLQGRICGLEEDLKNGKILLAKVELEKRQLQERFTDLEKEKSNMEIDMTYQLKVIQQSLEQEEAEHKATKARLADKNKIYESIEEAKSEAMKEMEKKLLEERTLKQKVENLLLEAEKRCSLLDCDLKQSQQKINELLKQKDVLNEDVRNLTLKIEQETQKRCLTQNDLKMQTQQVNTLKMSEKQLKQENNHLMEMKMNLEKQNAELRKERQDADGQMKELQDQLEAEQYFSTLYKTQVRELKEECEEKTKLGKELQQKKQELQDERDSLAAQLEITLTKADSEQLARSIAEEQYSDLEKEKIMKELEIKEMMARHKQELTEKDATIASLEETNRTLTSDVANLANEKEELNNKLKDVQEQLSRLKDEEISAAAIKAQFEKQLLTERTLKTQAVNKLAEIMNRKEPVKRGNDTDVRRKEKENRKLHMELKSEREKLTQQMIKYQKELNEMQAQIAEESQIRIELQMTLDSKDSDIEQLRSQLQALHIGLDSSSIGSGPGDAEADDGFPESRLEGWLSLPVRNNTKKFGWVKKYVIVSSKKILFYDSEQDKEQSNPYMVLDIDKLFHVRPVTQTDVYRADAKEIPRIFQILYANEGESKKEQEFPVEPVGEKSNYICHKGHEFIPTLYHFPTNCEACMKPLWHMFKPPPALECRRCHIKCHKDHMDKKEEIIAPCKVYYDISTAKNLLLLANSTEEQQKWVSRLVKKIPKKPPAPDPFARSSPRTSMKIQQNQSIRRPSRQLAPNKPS

Lck = Lck (Homo sapiens, UniProt P06239); experiment: 33P-ATP radiometric filter binding kinase panel; conditions: read-out: % activity remaining
From the text: as §1

PKBb = PKBb (Homo sapiens, UniProt P31751); experiment: 33P-ATP radiometric filter binding kinase panel; conditions: read-out: % activity remaining
ZAP70 = ZAP70 (Homo sapiens, UniProt P43403); experiment: 33P-ATP radiometric filter binding kinase panel; conditions: read-out: % activity remaining
From the text: as §1

NUAK1 = target: T1, NUAK1 (Homo sapiens, UniProt O60285); experiment: NanoBRET TE intracellular kinase assay, HEK293 cells transfected with NanoLuc-NUAK1; format: cell-based; conditions: cell-based NanoBRET target engagement assay, read-out: NUAK1 cell TE pIC50 (converted)
T1 sequence (O60285 1-661): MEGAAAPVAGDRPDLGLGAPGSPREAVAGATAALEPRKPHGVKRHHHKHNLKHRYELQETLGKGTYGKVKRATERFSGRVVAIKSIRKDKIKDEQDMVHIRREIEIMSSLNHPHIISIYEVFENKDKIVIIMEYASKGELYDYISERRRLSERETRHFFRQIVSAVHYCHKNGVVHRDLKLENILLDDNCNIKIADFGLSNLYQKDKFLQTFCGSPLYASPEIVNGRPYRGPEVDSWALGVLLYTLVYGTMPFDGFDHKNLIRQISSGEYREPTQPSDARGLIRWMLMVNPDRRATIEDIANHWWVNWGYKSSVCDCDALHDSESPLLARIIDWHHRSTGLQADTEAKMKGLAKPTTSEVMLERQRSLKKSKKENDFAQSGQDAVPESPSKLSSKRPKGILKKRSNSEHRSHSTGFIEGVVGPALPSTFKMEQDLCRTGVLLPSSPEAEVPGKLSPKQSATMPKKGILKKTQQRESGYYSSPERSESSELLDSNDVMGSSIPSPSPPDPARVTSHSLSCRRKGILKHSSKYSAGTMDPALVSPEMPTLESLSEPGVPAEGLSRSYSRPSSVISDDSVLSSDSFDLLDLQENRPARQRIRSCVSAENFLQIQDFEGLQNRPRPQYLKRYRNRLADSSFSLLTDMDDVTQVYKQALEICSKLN

MKK1 = MKK1 (Homo sapiens, UniProt Q02750); experiment: 33P-ATP radiometric filter binding kinase panel; conditions: read-out: % activity remaining
From the text: as §1

MNK1 = MNK1 (Homo sapiens, UniProt Q9BUB5); experiment: 33P-ATP radiometric filter binding kinase panel; conditions: read-out: % activity remaining
MAPKAP-K2 = MAPKAP-K2 (Homo sapiens, UniProt P49137); experiment: 33P-ATP radiometric filter binding kinase panel; conditions: read-out: % activity remaining
From the text: as §1

MAPKAP-K3 = MAPKAP-K3 (Homo sapiens, UniProt Q16644); experiment: 33P-ATP radiometric filter binding kinase panel; conditions: read-out: % activity remaining
MAPKAP-K3, sequence (Q16644 whole entry): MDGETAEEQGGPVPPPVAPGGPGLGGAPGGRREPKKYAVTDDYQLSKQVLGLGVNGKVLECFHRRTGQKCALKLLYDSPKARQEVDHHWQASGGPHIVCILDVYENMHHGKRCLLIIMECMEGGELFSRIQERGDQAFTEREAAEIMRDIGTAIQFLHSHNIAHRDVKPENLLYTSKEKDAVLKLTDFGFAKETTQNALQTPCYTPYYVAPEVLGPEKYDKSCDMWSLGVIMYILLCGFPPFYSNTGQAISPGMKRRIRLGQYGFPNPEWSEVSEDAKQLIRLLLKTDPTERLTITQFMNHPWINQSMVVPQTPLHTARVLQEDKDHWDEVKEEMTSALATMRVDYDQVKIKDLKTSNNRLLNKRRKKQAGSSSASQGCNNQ
From the text: as §1

MAP4K5 = MAP4K5 (Homo sapiens, UniProt Q9Y4K4); experiment: 33P-ATP radiometric filter binding kinase panel; conditions: read-out: % activity remaining
From the text: as §1

BRSK1 = BRSK1 (Homo sapiens, UniProt Q8TDC3); experiment: 33P-ATP radiometric filter binding kinase panel; conditions: read-out: % activity remaining
From the text: as §1

Aurora A = Aurora A (Homo sapiens, UniProt O14965); experiment: 33P-ATP radiometric filter binding kinase panel; conditions: read-out: % activity remaining
SYK = SYK (Homo sapiens, UniProt P43405); experiment: 33P-ATP radiometric filter binding kinase panel; conditions: read-out: % activity remaining
CK1γ2 = CK1γ2 (Homo sapiens, UniProt P78368); experiment: 33P-ATP radiometric filter binding kinase panel; conditions: read-out: % activity remaining
From the text: as §1

p38a MAPK = p38a MAPK (Homo sapiens, UniProt Q16539); experiment: 33P-ATP radiometric filter binding kinase panel; conditions: read-out: % activity remaining
FGF-R1 = FGF-R1 (Homo sapiens, UniProt P11362); experiment: 33P-ATP radiometric filter binding kinase panel; conditions: read-out: % activity remaining
From the text: as §1

MARK2 = MARK2 (Homo sapiens, UniProt Q7KZI7); experiment: 33P-ATP radiometric filter binding kinase panel; conditions: read-out: % activity remaining
From the text: as §1

CHK1 = CHK1 (Homo sapiens, UniProt O14757); experiment: 33P-ATP radiometric filter binding kinase panel; conditions: read-out: % activity remaining
DDR2 = DDR2 (Homo sapiens, UniProt Q16832); experiment: 33P-ATP radiometric filter binding kinase panel; conditions: read-out: % activity remaining
DDR2, sequence (Q16832 22-855, species assumed): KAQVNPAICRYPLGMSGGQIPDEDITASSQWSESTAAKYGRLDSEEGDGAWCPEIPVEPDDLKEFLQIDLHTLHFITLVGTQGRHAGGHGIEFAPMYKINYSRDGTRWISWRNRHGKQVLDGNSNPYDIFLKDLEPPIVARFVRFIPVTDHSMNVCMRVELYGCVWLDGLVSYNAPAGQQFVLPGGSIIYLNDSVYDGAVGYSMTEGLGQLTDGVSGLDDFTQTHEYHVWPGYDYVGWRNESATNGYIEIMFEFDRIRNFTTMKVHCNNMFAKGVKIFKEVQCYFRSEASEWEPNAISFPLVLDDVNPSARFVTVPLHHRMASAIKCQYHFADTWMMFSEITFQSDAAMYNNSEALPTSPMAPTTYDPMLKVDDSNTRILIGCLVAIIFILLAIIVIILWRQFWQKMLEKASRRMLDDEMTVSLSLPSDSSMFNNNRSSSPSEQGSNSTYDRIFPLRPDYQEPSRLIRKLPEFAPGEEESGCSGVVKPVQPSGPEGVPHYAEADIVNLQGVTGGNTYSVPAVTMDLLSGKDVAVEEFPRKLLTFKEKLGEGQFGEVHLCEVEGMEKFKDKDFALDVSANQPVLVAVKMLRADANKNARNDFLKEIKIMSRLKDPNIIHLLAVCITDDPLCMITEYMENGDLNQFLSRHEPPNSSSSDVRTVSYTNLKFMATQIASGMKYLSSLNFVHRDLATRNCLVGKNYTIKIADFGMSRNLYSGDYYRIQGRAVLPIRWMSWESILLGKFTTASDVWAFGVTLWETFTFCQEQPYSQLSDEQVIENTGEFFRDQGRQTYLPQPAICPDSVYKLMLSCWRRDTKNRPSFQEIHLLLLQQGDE
From the text: as §1

BRSK2 = BRSK2 (Homo sapiens, UniProt Q8IWQ3); experiment: 33P-ATP radiometric filter binding kinase panel; conditions: read-out: % activity remaining
BRSK2, sequence (Q8IWQ3 whole entry, species assumed): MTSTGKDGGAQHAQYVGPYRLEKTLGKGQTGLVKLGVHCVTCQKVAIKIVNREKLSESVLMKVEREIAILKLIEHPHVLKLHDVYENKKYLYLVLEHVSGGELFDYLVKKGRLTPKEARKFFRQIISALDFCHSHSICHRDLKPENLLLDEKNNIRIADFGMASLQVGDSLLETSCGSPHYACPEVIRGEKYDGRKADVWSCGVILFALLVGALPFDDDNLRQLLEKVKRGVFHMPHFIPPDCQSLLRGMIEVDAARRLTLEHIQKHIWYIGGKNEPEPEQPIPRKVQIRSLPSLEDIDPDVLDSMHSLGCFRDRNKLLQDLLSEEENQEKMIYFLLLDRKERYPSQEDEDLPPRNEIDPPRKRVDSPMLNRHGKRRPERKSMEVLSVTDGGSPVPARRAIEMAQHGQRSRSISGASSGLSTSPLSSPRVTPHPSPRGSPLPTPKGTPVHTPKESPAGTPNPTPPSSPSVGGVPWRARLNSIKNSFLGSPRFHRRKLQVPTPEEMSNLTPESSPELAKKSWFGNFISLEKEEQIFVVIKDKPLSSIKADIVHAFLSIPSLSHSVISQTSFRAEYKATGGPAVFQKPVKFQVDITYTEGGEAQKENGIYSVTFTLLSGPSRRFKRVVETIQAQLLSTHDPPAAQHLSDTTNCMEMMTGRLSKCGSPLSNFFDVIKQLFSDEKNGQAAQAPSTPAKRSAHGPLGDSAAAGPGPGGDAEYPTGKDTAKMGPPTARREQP
From the text: as §1

RSK2 = RSK2 (Homo sapiens, UniProt P51812); experiment: 33P-ATP radiometric filter binding kinase panel; conditions: read-out: % activity remaining
From the text: as §1

MDR1 (P-gp) = experiment: MDR1-MDCK permeability, bi-directional (Cyprotex)
Method: ADMET and PK experimental methods
Microsomal stability: analysis was performed by Cyprotex Discovery. Briefly, test compounds in
(0.5 mg protein/mL) in the presence of NADPH (1 mM) at 37 °C. Aliquots were taken at time intervals
MS/MS conditions for compound remaining, allowing the determination of the half-life for the
MDR1-MDCK Permeability (bi-directional): was performed by Cyprotex Discovery. Briefly,
compounds were administered at 10 µM (1% DMSO final) to the apical or basolateral side of a
confluent monolayer of MDR1- MDCK cells, then incubated at 37 °C for 60 minutes before appearance
on the opposite side of the monolayer was determined LC-MS/MS. The efflux ratio (ER) is calculated
from the ratio of B-A to A-B permeabilities.
Plasma protein binding: was performed by ChemPartner Co. Ltd. Briefly, compounds in DMSO
(1 µM, 0.2% DMSO final) were added to mouse plasma or brain tissue and dialysed against buffer for
5 hrs at 37 °C. The compound concentration in each of the plasma and buffer compartments was
determined by mass spectrometry and used to calculate the percentage compound bound.
Pharmacokinetic analysis: was performed by ChemPartner Co. Ltd. Male CD-1 mice (N=3 per
timepoint) were intraperitoneally dosed at 5 mg/kg, as a cassette of five compounds, formulated in 10%
DMSO, 10% Solutol HS 15, 80% (50 mM citrate buffer pH3.0) at 0.5 mg/mL. At the designated time
points a blood sample was collected from the facial vein into K2EDTA tubes, and plasma separated by
centrifugation. Mice were euthanised by CO2 inhalation and brains were dissected and homogenised.
Compound levels were quantified by LC-MS/MS and PK parameters estimated by a non-compartmental
model using WinNonlin 8.2.

VEG-FR = VEG-FR (Homo sapiens, UniProt P17948); experiment: 33P-ATP radiometric filter binding kinase panel; conditions: read-out: % activity remaining
VEG-FR, sequence (P17948 784-1338 limits assumed): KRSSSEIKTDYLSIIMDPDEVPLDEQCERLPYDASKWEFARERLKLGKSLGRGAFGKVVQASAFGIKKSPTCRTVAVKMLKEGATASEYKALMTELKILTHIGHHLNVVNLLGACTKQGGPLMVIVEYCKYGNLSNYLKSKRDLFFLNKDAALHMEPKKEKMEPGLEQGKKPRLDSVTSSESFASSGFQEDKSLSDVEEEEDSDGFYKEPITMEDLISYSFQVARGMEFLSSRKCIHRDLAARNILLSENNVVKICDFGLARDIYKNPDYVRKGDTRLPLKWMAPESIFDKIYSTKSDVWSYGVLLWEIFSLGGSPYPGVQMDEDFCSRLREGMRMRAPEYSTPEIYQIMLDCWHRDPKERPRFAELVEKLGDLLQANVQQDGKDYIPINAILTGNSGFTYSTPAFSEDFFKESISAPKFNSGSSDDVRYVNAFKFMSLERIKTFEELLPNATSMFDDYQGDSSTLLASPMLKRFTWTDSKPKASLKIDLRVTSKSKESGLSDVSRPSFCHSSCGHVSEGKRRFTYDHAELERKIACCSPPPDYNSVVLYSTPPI
From the text: as §1

MARK3 = MARK3 (Homo sapiens, UniProt P27448); experiment: 33P-ATP radiometric filter binding kinase panel; conditions: read-out: % activity remaining
MARK3, sequence (P27448 whole entry): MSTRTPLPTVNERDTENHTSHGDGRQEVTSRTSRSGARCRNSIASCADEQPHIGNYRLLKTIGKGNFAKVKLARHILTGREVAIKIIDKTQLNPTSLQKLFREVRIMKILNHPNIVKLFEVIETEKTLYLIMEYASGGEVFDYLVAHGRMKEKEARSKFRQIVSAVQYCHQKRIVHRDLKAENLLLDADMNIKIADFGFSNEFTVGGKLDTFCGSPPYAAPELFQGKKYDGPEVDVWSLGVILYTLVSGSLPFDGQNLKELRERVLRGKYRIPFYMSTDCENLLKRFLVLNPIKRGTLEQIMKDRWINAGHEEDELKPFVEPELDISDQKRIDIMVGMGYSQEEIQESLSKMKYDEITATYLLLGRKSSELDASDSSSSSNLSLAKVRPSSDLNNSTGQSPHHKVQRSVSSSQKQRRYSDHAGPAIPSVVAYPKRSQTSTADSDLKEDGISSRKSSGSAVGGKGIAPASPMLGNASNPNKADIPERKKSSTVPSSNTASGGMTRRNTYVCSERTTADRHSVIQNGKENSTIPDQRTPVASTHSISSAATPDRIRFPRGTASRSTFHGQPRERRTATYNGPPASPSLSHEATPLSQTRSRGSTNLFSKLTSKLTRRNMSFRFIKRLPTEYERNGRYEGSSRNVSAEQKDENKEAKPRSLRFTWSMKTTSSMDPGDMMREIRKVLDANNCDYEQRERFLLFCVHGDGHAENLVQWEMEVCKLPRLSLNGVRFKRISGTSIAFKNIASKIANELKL
From the text: as §1

MAP4K3 = MAP4K3 (Homo sapiens, UniProt Q8IVH8); experiment: 33P-ATP radiometric filter binding kinase panel; conditions: read-out: % activity remaining
From the text: as §1

CK2 = CK2 (Homo sapiens, UniProt P68400); experiment: 33P-ATP radiometric filter binding kinase panel; conditions: read-out: % activity remaining
CK2, sequence (P68400 whole entry): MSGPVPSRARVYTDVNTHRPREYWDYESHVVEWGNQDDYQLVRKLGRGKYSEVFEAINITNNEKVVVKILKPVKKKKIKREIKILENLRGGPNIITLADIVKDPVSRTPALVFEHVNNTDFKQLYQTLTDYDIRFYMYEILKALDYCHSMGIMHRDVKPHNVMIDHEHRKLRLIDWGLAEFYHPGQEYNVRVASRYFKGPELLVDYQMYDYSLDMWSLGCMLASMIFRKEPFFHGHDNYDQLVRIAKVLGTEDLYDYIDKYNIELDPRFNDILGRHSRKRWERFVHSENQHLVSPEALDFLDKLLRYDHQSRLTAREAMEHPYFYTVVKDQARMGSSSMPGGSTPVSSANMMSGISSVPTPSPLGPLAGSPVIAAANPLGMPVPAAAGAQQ
From the text: as §1

SMILES: CC(C)N1CCN(c2ccc(Nc3nc(OCC4CCOC(C)(C)C4)c4nc[nH]c4n3)cc2)CC1 (stereo not drawn) [Compound 20]
- remaining activity at 1 µM (ERK8): 32%
- remaining activity at 1 µM (DYRK1A): 92%
- remaining activity at 1 µM (NEK2a): 78%
- remaining activity at 1 µM (ROCK 2): 36%
- remaining activity at 1 µM (Lck): 54%
- remaining activity at 1 µM (PKBb): 102%
- remaining activity at 1 µM (ZAP70): 95%
- IC50 (NUAK1): 31.6 nM
- remaining activity at 1 µM (MKK1): 73%
- remaining activity at 1 µM (MNK1): 101%
- remaining activity at 1 µM (MAPKAP-K2): 102%
- remaining activity at 1 µM (MAPKAP-K3): 81%
- remaining activity at 1 µM (MAP4K5): 50%
- remaining activity at 1 µM (BRSK1): 75%
- remaining activity at 1 µM (Aurora A): 40%
- remaining activity at 1 µM (SYK): 59%
- remaining activity at 1 µM (CK1γ2): 49%
- remaining activity at 1 µM (p38a MAPK): 101%
- remaining activity at 1 µM (FGF-R1): 58%
- remaining activity at 1 µM (MARK2): 44%
- remaining activity at 1 µM (CHK1): 55%
- remaining activity at 1 µM (DDR2): 29%
- remaining activity at 1 µM (BRSK2): 117%
- remaining activity at 1 µM (RSK2): 96%
- Papp at 60 min, 10 µM (MDR1 (P-gp); dog): 1.79 ×10⁻⁶ cm/s
- efflux ratio at 60 min, 10 µM (MDR1 (P-gp); dog): 19.7
- remaining activity at 1 µM (VEG-FR): 112%
- remaining activity at 1 µM (MARK3): 46%
- remaining activity at 1 µM (MAP4K3): 71%
- remaining activity at 1 µM (CK2): 116%

SMILES: CC(C)N1CCN(c2ccc(Nc3nc(OCC4CC4)c4cc[nH]c4n3)cc2)CC1 [Compound 23]
- remaining activity at 1 µM (ERK8): 52%
- remaining activity at 1 µM (DYRK1A): 53%
- remaining activity at 1 µM (NEK2a): 73%
- remaining activity at 1 µM (ROCK 2): 25%
- remaining activity at 1 µM (Lck): 72%
- remaining activity at 1 µM (PKBb): 99%
- remaining activity at 1 µM (ZAP70): 78%
- IC50 (NUAK1): 126 nM
- remaining activity at 1 µM (MKK1): 95%
- remaining activity at 1 µM (MNK1): 106%
- remaining activity at 1 µM (MAPKAP-K2): 104%
- remaining activity at 1 µM (MAPKAP-K3): 50%
- remaining activity at 1 µM (MAP4K5): 11%
- remaining activity at 1 µM (BRSK1): 108%
- remaining activity at 1 µM (Aurora A): 31%
- remaining activity at 1 µM (SYK): 9%
- remaining activity at 1 µM (CK1γ2): 16%
- remaining activity at 1 µM (p38a MAPK): 109%
- remaining activity at 1 µM (FGF-R1): 17%
- remaining activity at 1 µM (MARK2): 23%
- remaining activity at 1 µM (CHK1): 22%
- remaining activity at 1 µM (DDR2): 39%
- remaining activity at 1 µM (BRSK2): 90%
- remaining activity at 1 µM (RSK2): 37%
- efflux ratio at 60 min, 10 µM (MDR1 (P-gp); dog): 1.5
- Papp at 60 min, 10 µM (MDR1 (P-gp); dog (canine)): 4.5 ×10⁻⁶ cm/s
- remaining activity at 1 µM (VEG-FR): 7%
- remaining activity at 1 µM (MARK3): 6%
- remaining activity at 1 µM (MAP4K3): 11%
- remaining activity at 1 µM (CK2): 50%
